# Measured values published in PubChem BioAssay (NCI).
#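 Exposure lasted 48 hours, with cells grown in 96-well plates and compounds tested at five concentrations. GI50 is the concentration that inhibits growth by half. The concentration for full growth arrest is given as TGI.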
# Key:
# Assay in all cases: NCI tumour cell line growth inhibition, 48 h
# [1] = tested on: HOP-92 NSCLC
# [2] = tested on: SF-539 CNS
# [3] = tested on: SK-MEL-28 melanoma
# [4] = tested on: SK-OV-3 ovarian
# [5] = tested on: HT29 colon
# [6] = tested on: K-562 leukemia
# [7] = tested on: OVCAR-3 ovarian
# [8] = tested on: OVCAR-5 ovarian
# [9] = tested on: LOX IMVI melanoma
# [10] = tested on: SK-MEL-5 melanoma
# [11] = tested on: A498 renal
# [12] = tested on: XF 498 CNS
# [13] = tested on: M19-MEL melanoma
# [14] = tested on: HOP-62 NSCLC
# [15] = tested on: MOLT-4 leukemia
# [16] = tested on: M14 melanoma
# [17] = tested on: COLO 205 colon
# [18] = tested on: NCI-H226 lung
# [19] = tested on: HOP-18 NSCLC
# [20] = tested on: DMS 114 small cell lung
# [21] = tested on: SN12C renal
# [22] = tested on: 786-0 renal
# [23] = tested on: CCRF-CEM leukemia
# [24] = tested on: DLD-1 colon
# [25] = tested on: NCI-H23 lung
# [26] = tested on: HCT-116 colon
# [27] = tested on: SF-268 CNS
# [28] = tested on: SF-295 CNS
# [29] = tested on: UACC-257 melanoma
# [30] = tested on: MALME-3M melanoma
# [31] = tested on: UO-31 renal
# [32] = tested on: DMS 273 small cell lung
# [33] = tested on: IGROV1 ovarian
# [34] = tested on: HL-60(TB) leukemia
# [35] = tested on: KM12 colon
# [36] = tested on: HCT-15 colon
# [37] = tested on: SNB-75 CNS
# [38] = tested on: UACC-62 melanoma
# [39] = tested on: HCC-2998 colon
# [40] = tested on: CAKI-1 renal
# [41] = tested on: A549 NSCLC
# [42] = tested on: SW-620 colon
# [43] = tested on: SK-MEL-2 melanoma
# [44] = tested on: RPMI-8226 leukemia
# [45] = tested on: U251 CNS
# [46] = tested on: OVCAR-4 ovarian
# [47] = tested on: ACHN renal
# [48] = tested on: KM20L2 colon
# [49] = tested on: SNB-19 CNS
# [50] = tested on: TK-10 renal
# [51] = tested on: NCI-H522 lung
# [52] = tested on: OVCAR-8 ovarian
# [53] = tested on: RXF 393 renal
# [54] = tested on: LXFL 529 NSCLC
# [55] = tested on: EKVX NSCLC
# [56] = tested on: NCI-H460 lung
smiles,measurement,setting,value
O=C1NC2C3CC(OCc4ccccc4)(OCc4ccccc4)C2OC3O1 (stereo not drawn),TGI,[1],> 50 µM
same,TGI,[2],> 50 µM
same,TGI,[3],> 50 µM
same,TGI,[4],> 50 µM
same,TGI,[5],> 50 µM
same,TGI,[6],> 50 µM
same,TGI,[7],> 50 µM
same,TGI,[8],> 50 µM
same,TGI,[9],> 50 µM
same,TGI,[10],> 50 µM
same,TGI,[11],> 50 µM
same,TGI,[12],> 50 µM
same,TGI,[13],> 50 µM
same,TGI,[14],> 50 µM
same,TGI,[15],> 50 µM
same,TGI,[16],> 50 µM
same,TGI,[17],> 50 µM
same,TGI,[18],> 50 µM
same,TGI,[19],> 50 µM
same,TGI,[20],> 50 µM
same,TGI,[21],> 50 µM
same,TGI,[22],> 50 µM
same,TGI,[23],> 50 µM
same,TGI,[24],> 50 µM
same,TGI,[25],> 50 µM
same,TGI,[26],> 50 µM
same,TGI,[27],> 50 µM
same,TGI,[28],> 50 µM
same,TGI,[29],> 50 µM
same,TGI,[30],> 50 µM
same,TGI,[31],> 50 µM
same,TGI,[32],> 50 µM
same,TGI,[33],> 50 µM
same,TGI,[34],> 50 µM
same,TGI,[35],> 50 µM
same,TGI,[36],> 50 µM
same,TGI,[37],> 50 µM
same,TGI,[38],> 50 µM
same,TGI,[39],> 50 µM
same,TGI,[40],> 50 µM
same,TGI,[41],> 50 µM
same,TGI,[42],> 50 µM
same,TGI,[43],> 50 µM
same,TGI,[44],> 50 µM
CC(=O)[CH-]C(=O)c1ccccc1.CC(=O)[CH-]C(=O)c1ccccc1.CC[C@H](/C=C/C(C)[C@H]1CCC2[C@@H]3CC=C4C[C@@H]([O-])CC[C@]4(C)C3CC[C@@]21C)C(C)C.CC[C@H](/C=C/C(C)[C@H]1CCC2[C@@H]3CC=C4C[C@@H]([O-])CC[C@]4(C)C3CC[C@@]21C)C(C)C.Cl.[Ti+4] (stereo partly drawn),GI50,[2],> 25 µM
same,TGI,[2],> 25 µM
same,GI50,[45],> 25 µM
same,TGI,[45],> 25 µM
same,GI50,[3],6.08 µM
same,TGI,[3],> 25 µM
same,GI50,[4],> 25 µM
same,TGI,[4],> 25 µM
same,GI50,[5],> 25 µM
same,TGI,[5],> 25 µM
same,GI50,[46],> 25 µM
same,TGI,[46],> 25 µM
same,GI50,[47],> 25 µM
same,TGI,[47],> 25 µM
same,GI50,[6],> 25 µM
same,TGI,[6],> 25 µM
same,GI50,[48],> 25 µM
same,TGI,[48],> 25 µM
same,GI50,[7],> 25 µM
same,TGI,[7],> 25 µM
same,GI50,[49],> 25 µM
same,TGI,[49],> 25 µM
same,GI50,[8],> 25 µM
same,TGI,[8],> 25 µM
same,GI50,[9],> 25 µM
same,TGI,[9],> 25 µM
same,GI50,[50],> 25 µM
same,TGI,[50],> 25 µM
same,GI50,[10],> 25 µM
same,TGI,[10],> 25 µM
same,GI50,[11],> 25 µM
same,TGI,[11],> 25 µM
same,GI50,[13],> 25 µM
same,TGI,[13],> 25 µM
same,GI50,[14],> 25 µM
same,TGI,[14],> 25 µM
same,GI50,[15],> 25 µM
same,TGI,[15],> 25 µM
same,GI50,[16],> 25 µM
same,TGI,[16],> 25 µM
same,GI50,[17],> 25 µM
same,TGI,[17],> 25 µM
same,GI50,[18],> 25 µM
same,TGI,[18],> 25 µM
same,GI50,[19],> 25 µM
same,TGI,[19],> 25 µM
same,GI50,[21],> 25 µM
same,TGI,[21],> 25 µM
same,GI50,[51],> 25 µM
same,TGI,[51],> 25 µM
same,GI50,[22],23 µM
same,TGI,[22],> 25 µM
same,GI50,[23],> 25 µM
same,TGI,[23],> 25 µM
same,GI50,[24],> 25 µM
same,TGI,[24],> 25 µM
same,GI50,[25],> 25 µM
same,TGI,[25],> 25 µM
same,GI50,[26],> 25 µM
same,TGI,[26],> 25 µM
same,GI50,[27],> 25 µM
same,TGI,[27],> 25 µM
same,GI50,[28],> 25 µM
same,TGI,[28],> 25 µM
same,GI50,[29],> 25 µM
same,TGI,[29],> 25 µM
same,GI50,[30],10.5 µM
same,TGI,[30],> 25 µM
same,GI50,[31],> 25 µM
same,TGI,[31],> 25 µM
same,GI50,[32],> 25 µM
same,TGI,[32],> 25 µM
same,GI50,[33],> 25 µM
same,TGI,[33],> 25 µM
same,GI50,[52],> 25 µM
same,TGI,[52],> 25 µM
same,GI50,[34],6.35 µM
same,TGI,[34],16.6 µM
same,GI50,[53],> 25 µM
same,TGI,[53],> 25 µM
same,GI50,[35],> 25 µM
same,TGI,[35],> 25 µM
same,GI50,[36],> 25 µM
same,TGI,[36],> 25 µM
same,GI50,[54],> 25 µM
same,TGI,[54],> 25 µM
same,GI50,[38],> 25 µM
same,TGI,[38],> 25 µM
same,GI50,[39],> 25 µM
same,TGI,[39],> 25 µM
same,GI50,[40],> 25 µM
same,TGI,[40],> 25 µM
same,GI50,[41],> 25 µM
same,TGI,[41],> 25 µM
same,GI50,[55],> 25 µM
same,TGI,[55],> 25 µM
same,GI50,[42],> 25 µM
same,TGI,[42],> 25 µM
same,GI50,[43],> 25 µM
same,TGI,[43],> 25 µM
same,GI50,[56],> 25 µM
same,TGI,[56],> 25 µM
same,GI50,[44],> 25 µM
same,TGI,[44],> 25 µM
